Values of other authors in patent publication EP1197217A1, “Use of sodium nitroprussiate in obstetrics and gynaecology” (Ibsa Institut Biochimique S.A., priority 2000, dated 2002).
Several values for one entry are separate records, joined by “and”; a condition that tells them apart may be missing. Equal values may be shown once.

Tested on: cervix
Settings: in vivo

In the case of `O=[N+]([O-])O[C@@H]1CO[C@H]2[C@@H]1OC[C@@H]2O` [isosorbide mononitrate], the “cumulative median force necessary to dilate the cervix to 8 mm” value is given as 40 newtons and 36 newtons.
